From patent US20250215029A1 (Recludix Pharma, Inc., priority 2022, published 2025)
Where two headings read alike, the source gives them in different places.

Key:
[1] = target: T1, pY641-STAT6 in PBMC (Homo sapiens, UniProt P42226); experiment: MSD-pSTAT-PBMC Assay (pSTAT6, IL-4 stimulated); format: cell-based; settings: compound 3 hrs, then 1 ng/mL IL-4 for 10 min, Table 115
T1 construct: Cryopreserved Peripheral Blood Mononuclear Cells (PBMC) are from AllCells; host or cells: cryopreserved PBMC
T1 sequence (P42226 1-847): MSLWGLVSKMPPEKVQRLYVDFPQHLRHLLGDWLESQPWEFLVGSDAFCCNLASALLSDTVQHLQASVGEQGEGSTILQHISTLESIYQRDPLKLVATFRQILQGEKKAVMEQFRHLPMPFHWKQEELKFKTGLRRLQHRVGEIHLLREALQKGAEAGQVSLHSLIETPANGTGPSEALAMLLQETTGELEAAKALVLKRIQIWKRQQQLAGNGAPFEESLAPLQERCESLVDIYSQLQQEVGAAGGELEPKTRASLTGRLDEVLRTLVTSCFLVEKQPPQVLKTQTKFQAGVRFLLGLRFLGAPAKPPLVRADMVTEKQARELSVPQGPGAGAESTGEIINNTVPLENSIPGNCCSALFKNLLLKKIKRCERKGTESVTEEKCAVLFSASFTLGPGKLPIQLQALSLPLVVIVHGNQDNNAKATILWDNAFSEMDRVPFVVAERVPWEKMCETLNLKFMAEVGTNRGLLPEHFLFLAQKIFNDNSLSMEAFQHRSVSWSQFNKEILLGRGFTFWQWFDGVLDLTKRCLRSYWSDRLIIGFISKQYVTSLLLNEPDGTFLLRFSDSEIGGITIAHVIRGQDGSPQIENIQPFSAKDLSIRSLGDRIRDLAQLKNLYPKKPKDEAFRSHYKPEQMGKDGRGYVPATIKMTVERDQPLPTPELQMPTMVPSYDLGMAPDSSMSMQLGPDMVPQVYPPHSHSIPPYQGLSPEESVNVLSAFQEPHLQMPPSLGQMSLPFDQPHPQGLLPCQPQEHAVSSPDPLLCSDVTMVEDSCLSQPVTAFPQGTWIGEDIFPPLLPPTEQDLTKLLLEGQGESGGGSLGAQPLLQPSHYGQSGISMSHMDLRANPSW
Source text: Cryopreserved Peripheral Blood Mononuclear Cells (PBMC) are from AllCells. Recombinant Human IL-4 and IL-6 are from Peprotech. Mouse monoclonal anti-STAT3 antibody, rabbit monoclonal anti-pY705-STAT3 antibody, rabbit monoclonal Anti-pY641-STAT6 antibody, and lysis buffer are from Cell Signaling Technology (CST). Mouse monoclonal anti-STAT6 antibody is from BioLegend. Assay plates, blocker, and anti-rabbit secondary antibody are from Meso Scale Discovery (MSD).
Cyropreserved PBMCs were thawed out and allowed to recover overnight in IMDM+10% heat-inactivated FBS prior to plating 50,000 (STAT3) or 25,000 (STAT6) cells per well in 96-well U-bottom tissue culture plates. Cells were treated with compound for 3 hrs, then stimulated with 10 ng/mL IL-6 (STAT3) or 1 ng/mL IL-4 (STAT6) for 10 min. Cells were then spun down and washed with ice-cold PBS prior to lysing the cell pellet with 1× lysis buffer (CST) with 1× HALT protease and phosphatase inhibitor cocktail (Thermo). Lysates were transferred to and incubated overnight at 4° C. with shaking in QuickPlex 96-well high bind assay plates (MSD) pre-coated overnight with 30 μL per well of 0.6 μg/mL mouse monoclonal anti-STAT3 antibody (STAT3) or 2 μg/mL mouse monoclonal anti-STAT6 antibody (STAT6) in 1× PBS, and pre-blocked for 1 hour with 3% Blocker-A (MSD). Captured protein in the assay plates were then washed and probed with 25 μL per well of […] rabbit monoclonal anti-pY705-STAT3 antibody (STAT3) or 0.18 μg/ml rabbit monoclonal Anti-pY641-STAT6 antibody (STAT6) in 1% Blocker-A for 1 hour at room temperature with shaking, then washed and probed with 25 ul per well of 1 ug/ml Sulfo-TAG Labeled Goat Anti-Rabbit Antibody (MSD) in 1% Blocker-A for 1 hour at room temperature with shaking. Assay plates were then washed and 150 μL of 1× Read Buffer-T (MSD) was added to each well prior to reading on an SQ120 MSD Plate Reader. Assay signal from each sample was subtracted by the signal from unstimulated control wells and normalized to DMSO control wells. IC50 values were calculated using Graph Pad Prism Dose-Response Nonlinear Regression with variable slope. For both pSTAT3 and pSTAT6 A=≤100 nM; B 100-1000 nM; C=>1000-3000 nM; D=>3 μM; and NT=Not Tested.

[2] = target: T2, pY705-STAT3 in PBMC (Homo sapiens, UniProt P40763); experiment: MSD-pSTAT-PBMC Assay (pSTAT3, IL-6 stimulated); format: cell-based; settings: PBMC, compound 3 hrs, then 10 ng/mL IL-6 for 10 min; Table 115; read-out: STAT3
T2 construct: Cryopreserved Peripheral Blood Mononuclear Cells (PBMC) are from AllCells; host or cells: cryopreserved PBMC
In short: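 MSD electrochemiluminescence read-out: total STAT captured, probed with anti-pY641-STAT6 or anti-pY705-STAT3. Human PBMC, 3 h compound pretreatment, 10 min stimulation (IL-4 1 ng/mL or IL-6 10 ng/mL). Unstimulated signal subtracted, DMSO-normalized, variable-slope IC50.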

T2 sequence (P40763 whole entry): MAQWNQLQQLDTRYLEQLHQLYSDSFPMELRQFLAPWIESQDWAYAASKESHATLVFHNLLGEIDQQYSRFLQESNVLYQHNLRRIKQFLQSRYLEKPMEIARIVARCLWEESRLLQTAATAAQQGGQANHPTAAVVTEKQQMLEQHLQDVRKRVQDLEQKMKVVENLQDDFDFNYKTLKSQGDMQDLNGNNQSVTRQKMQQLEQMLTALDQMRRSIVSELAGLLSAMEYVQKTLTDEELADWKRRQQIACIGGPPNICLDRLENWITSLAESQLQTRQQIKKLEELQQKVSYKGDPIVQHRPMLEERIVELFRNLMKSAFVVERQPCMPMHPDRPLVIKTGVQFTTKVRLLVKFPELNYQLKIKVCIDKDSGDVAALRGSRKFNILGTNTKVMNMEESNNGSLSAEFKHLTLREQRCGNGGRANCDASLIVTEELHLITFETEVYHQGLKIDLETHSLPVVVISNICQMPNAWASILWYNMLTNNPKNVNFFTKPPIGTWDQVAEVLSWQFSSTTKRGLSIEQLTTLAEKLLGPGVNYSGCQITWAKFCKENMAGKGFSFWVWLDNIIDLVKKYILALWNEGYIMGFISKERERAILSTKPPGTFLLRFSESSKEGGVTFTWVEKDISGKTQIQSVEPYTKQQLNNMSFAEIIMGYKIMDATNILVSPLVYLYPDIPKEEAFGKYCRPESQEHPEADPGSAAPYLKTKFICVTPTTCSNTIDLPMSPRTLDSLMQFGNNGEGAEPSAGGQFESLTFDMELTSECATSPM

SMILES	IC50 ([1]; STAT6, PBMC) [nM]	further results
CCCOC(=O)[C@H](C)NP(=O)(Oc1ccccc1)C(F)c1ccc2sc(C(=O)N[C@H]3CCCC[C@H]4CCC[C@@H](C(=O)N5CC(C#N)[C@H](c6ccccc6)C5)N4C3=O)cc2c1 (relative stereo) [Compound 269, propyl (((2-(((4S,7S,11aS)-4-((rel-trans)-3-cyano-4-phenylpyrrolidine-1-carbonyl)-6-oxodecahydro-2H-pyrido[1,2-a]azocin-7-yl)carbamoyl)benzo [b]thiophen-5-yl)fluoromethyl) (phenoxy)phosphoryl)-L-alaninate]	< 100	–
CCCOC(=O)[C@H](C)NP(=O)(Oc1ccccc1)C(F)c1ccc2sc(C(=O)N[C@H]3CCCCC[C@H]4[C@H](O)C[C@@H](C(=O)N5CC(C#N)[C@H](c6ccccc6)C5)N4C3=O)cc2c1 (relative stereo) [Compound 270, propyl (((2-(((1R,3S,6S,11aS)-3-((rel-trans)-3-cyano-4-phenylpyrrolidine-1-carbonyl)-1-hydroxy-5-oxodecahydro-1H-pyrrolo[1,2-a]azonin-6-yl)carbamoyl)benzo [b]thiophen-5-yl)fluoromethyl) (phenoxy)phosphoryl)-L-alaninate]	100 to 1000	–
CCCOC(=O)[C@H](C)NP(=O)(Oc1ccccc1)C(F)c1ccc2sc(C(=O)N[C@H]3CCCC[C@H]4CC[C@@H](C(=O)N5C[C@@H](C#N)[C@H](c6cccn(C)c6=O)C5)N4C3=O)cc2c1 (relative stereo) [Compound 299, propyl (((2-(((3S,6S,10aS)-3-(rel-(trans)-3-cyano-4-(1-methyl-2-oxo-1,2-dihydropyridin-3-yl)pyrrolidine-1-carbonyl)-5-oxodecahydropyrrolo [1,2-a]azocin-6-yl)carbamoyl)benzo [b]thiophen-5-yl)fluoromethyl) (phenoxy)phosphoryl)-L-alaninate]	100 to 1000	–
CCCOC(=O)[C@H](C)NP(=O)(Oc1ccccc1)C(F)c1ccc2sc(C(=O)N[C@H]3CCCC[C@H]4CC[C@@H](C(=O)N5C[C@H](c6cccnc6OC)[C@@H](C#N)C5)N4C3=O)cc2c1 (relative stereo) [Compound 322, propyl (((2-(((3S,6S,10aS)-3-((rel-trans)-3-cyano-4-(2-methoxypyridin-3-yl)pyrrolidine-1-carbonyl)-5-oxodecahydropyrrolo [1,2-a]azocin-6-yl)carbamoyl)benzo [b]thiophen-5-yl)fluoromethyl) (phenoxy)phosphoryl)-L-alaninate]	< 100	–
CCCOC(=O)[C@H](C)NP(=O)(Oc1ccccc1)[C@@H](F)c1ccc2sc(C(=O)N[C@H]3CCCC[C@H]4CC[C@@H](C(=O)N5C[C@H](c6cccc(OC(F)F)c6)C(C#N)C56CC6)N4C3=O)cc2c1 (relative stereo) [Compound 338, propyl (((R)-(2-(((3S,6S,10aS)-3-((rel-trans)-7-cyano-6-(3-(difluoromethoxy)phenyl)-4-azaspiro[2.4]heptane-4-carbonyl)-5-oxodecahydropyrrolo [1,2-a]azocin-6-yl)carbamoyl)benzo [b]thiophen-5-yl)fluoromethyl) (phenoxy)phosphoryl)-L-alaninate]	< 100	–
CCCOC(=O)[C@H](C)NP(=O)(Oc1ccccc1)C(F)c1ccc2ccc(C(=O)N[C@H]3CCCC[C@H]4CC[C@@H](C(=O)N5C[C@@H](C#N)[C@H](c6ccccc6)C5)N4C3=O)cc2c1 (single isomer, unassigned) [Compound 316]	< 100	–
CCCOC(=O)[C@H](C)NP(=O)(Oc1ccccc1)C(F)c1ccc2sc(C(=O)N[C@H]3CCCC[C@H]4CC[C@@H](C(=O)N5C[C@@H](C#N)[C@H](c6ccccc6)C5)N4C3=O)cc2c1 (single isomer, unassigned) [Compound 317]	–	IC50 ([1]; read-out: STAT6, PBMC): < 100 nM
CCCOC(=O)[C@H](C)NP(=O)(Oc1ccccc1)C(F)c1ccc2sc(C(=O)N[C@H]3CCCC[C@H]4CC[C@@H](C(=O)N5C[C@@H](C#N)[C@H](c6ccn(C)c(=O)c6)C5)N4C3=O)cc2c1 (single isomer, unassigned) [Compound 318]	> 3000	–
CCCOC(=O)[C@H](C)NP(=O)(Oc1ccccc1)C(F)c1ccc2sc(C(=O)N[C@H]3CCCC[C@H]4CC[C@@H](C(=O)N5C[C@@H](C#N)[C@H](c6ccn(C)c(=O)c6)C5)N4C3=O)cc2c1 (single isomer, unassigned) [Compound 319]	1000 to 3000	–
CCCOC(=O)[C@H](C)NP(=O)(Oc1ccccc1)[C@H](F)c1ccc2sc(C(=O)N[C@H]3CCCC[C@H]4CC[C@@H](C(=O)N5C[C@@H](C#N)[C@H](c6ccccc6)C5)N4C3=O)cc2c1 (single isomer, unassigned) [Compound 321]	< 100	–
CCCOC(=O)[C@H](C)NP(=O)(Oc1ccccc1)[C@@H](F)c1ccc2sc(C(=O)N[C@H]3CCCC[C@H]4CC[C@@H](C(=O)N5C[C@H](c6cccc(OC)c6)[C@@H](C#N)C56CC6)N4C3=O)cc2c1 (single isomer, unassigned) [Compound 335]	< 100	–
CC(C)CC(=O)SCCOP(=O)(OCOC(=O)O[C@H]1CCOC1)C(F)(F)c1ccc2sc(C(=O)N[C@H]3CCC[C@H]4CC[C@@H](C(=O)N5CC(c6ncccn6)C5)N4C3=O)cc2c1 (stereo partly drawn) [Compound 1099, S-(2-(((difluoro(2-(((3S,6S,9aS)-5-oxo-3-(3-(pyrimidin-2-yl)azetidine-1-carbonyl)octahydro-1H-pyrrolo[1,2-a]azepin-6-yl)carbamoyl)benzo [b]thiophen-5-yl)methyl)((((((S)-tetrahydrofuran-3-yl)oxy)carbonyl)oxy)methoxy)phosphoryl)oxy)ethyl) 3-methylbutanethioate]	–	IC50 [2]: < 100 nM
COCCOCC(=O)SCCOP(=O)(OCCSC(=O)COCCOC)C(F)(F)c1ccc2sc(C(=O)N[C@H]3CCC[C@H]4CC[C@@H](C(=O)N5CC(c6cccnc6)C5)N4C3=O)cc2c1 [Compound 1102, S,S′-((((difluoro(2-(((3S,6S,9aS)-5-oxo-3-(3-(pyridin-3-yl)azetidine-1-carbonyl)octahydro-1H-pyrrolo[1,2-a]azepin-6-yl)carbamoyl)benzo [b]thiophen-5-yl)methyl)phosphoryl)bis(oxy))bis(ethane-2,1-diyl)) bis(2-(2-methoxyethoxy) ethanethioate)]	–	IC50 [2]: < 100 nM
CC(C)CC(=O)SCCOP(=O)(OCOC(=O)OC1CCOCC1)C(F)(F)c1ccc2sc(C(=O)N[C@H]3CCC[C@H]4CC[C@@H](C(=O)N5CC(c6ncccn6)C5)N4C3=O)cc2c1 (stereo partly drawn) [Compound 1105, S-(2-(((difluoro(2-(((3S,6S,9aS)-5-oxo-3-(3-(pyrimidin-2-yl)azetidine-1-carbonyl)octahydro-1H-pyrrolo[1,2-a]azepin-6-yl)carbamoyl)benzo [b]thiophen-5-yl)methyl)(((((tetra-hydro-2H-pyran-4-yl)oxy)carbonyl)oxy)methoxy)phosphoryl)oxy)ethyl) 3-methylbutanethioate]	–	IC50 [2]: < 100 nM
